Starred links: 1 amine or outer side, 2 acyl side, 3 side chain; linkers in the order of their positions; H or OH if unused. Residues, ends and D or L forms follow the SMILES beside them. Groups on a side chain read outwards from the residue. *: point of attachment. Glutaryl = O=C(CCCC(=O)[*:2])[*:1]; X1 = CCCC/C=C\CCCCCCCC=NN*; NHNH2 = NN*
Tests used:
[1] = test system: all the cell lines except for HepG2
mice [2] = assay: In vivo FLuc mRNA delivery, i.v. injection, concentrated formulation, BLI; settings: 125 μM
Protocol: Amphiphile stock solutions were prepared in DMSO as described above, but in this case, the amphiphile was contacted directly with the solution of nucleic acid cargo in a suitable buffer, such as PBS, or phosphate buffer enriched with inorganic salts, without any predilution step of the amphiphile's DMSO solution in a suitable aqueous buffer. Delivery efficiency of mRNA by i.v. administration route was determined by bioluminescence imaging (BLI). […] Luciferase expression was evaluated over 24 h, starting at 1 h after the administration of mRNA complexes. After that time, mice were sacrificed, and each organ was analysed individually using bioluminescence imaging (BLI) for quantification of the expression. […] Transfection results with the optimal volume ratios (125 or 250 μM final amphiphile concentration) and expression quantification in organs for candidates 7.2 DO, 7.2 M, 9.2 DO and 9.2 M are presented in FIGS. 12A, 12B, 11A, 11B, 13A, 13B, 20A and 20B respectively.
FIGS. 19A and 19B show in vivo transfection experiments in mice using amphiphiles comprising peptide 13.2 with oleyl aldehyde (13.2 O). These figures show representative bioluminescence images of mice and the extracted organs following i.v. (intravenous) injection of FLuc mRNA/amphiphile 13.2 O complexes (125 and 250 μM of 13.2 O were used, as indicated) at different times (1 h, 4 h, 7 h and 24 h). […]

mice [3] = assay: In vivo FLuc mRNA delivery, i.m. injection, bioluminescence imaging
Protocol: In vivo bioluminescence imaging (BLI) enables localization and quantification of expression following mRNA delivery in living animals.
The inventors evaluated the mRNA delivery efficiency of amphiphile by i.m. injections of an amphiphile-complexed FLuc mRNA in anesthetized mice using BLI. Amphiphilic molecule stock solutions were prepared in DMSO as described above and diluted in a suitable buffer, such as PBS, or phosphate buffer enriched with inorganic salts. The solutions of mRNA/amphiphile complexes were freshly prepared prior to in vivo experiments. Amphiphile solutions in a suitable buffer, such as PBS, or phosphate buffer enriched with inorganic salts, were mixed with mRNA solutions in a suitable buffer, such as PBS, or phosphate buffer enriched with inorganic salts (1:1 volume ratio, final amount of mRNA per mice=5 μg/mouse). The mixture was shaken for 30 min at room temperature before injection. For each mouse, 5 μg mRNA was complexed with the best candidates obtained from the in vitro experiments, 7.3(Leu-His) with myristoleyl aldehyde (7.3(Leu-His) M) (FIG. 7) or with palmitoleyl aldehyde (7.3(Leu-His) PA) (FIG. 8), and administered by i.m. injection in the right flank in 50 μL of a suitable buffer, such as PBS, or phosphate buffer enriched with inorganic salts. As control, 5 μg of naked mRNA was injected in three mice. Luciferase expression was evaluated over 48 h, starting at 1 h after the administration of mRNA complexes. […] In contrast, i.m. injections of naked mRNA afforded only low levels of luciferase expression, as measured by photon flux, in all mice. The experiment was performed in, at least, triplicates (3 mice per condition).
After obtaining the conditions providing the highest expression, a second round of i.m. delivery of FLuc mRNA was performed to further optimize the formulation of the complexes. […]

[4] = test system: chicken embryo fibroblasts (CEF); assay: EGFP pDNA transfection in primary chicken embryo fibroblasts; format: cell-based
Text: FIG. 5 EGFP pDNA transfection efficacy (% GFP-positive cells) with amphiphile comprising 7.3(Leu-His) peptide and myristoleyl aldehyde (7.3(L-H) M) at different concentrations, compared with Lipofectamine 2000 (LF) and TransIT-LT1 Transfection Reagent (Mirus) in CEF (chicken embryo fibroblasts).
The amphiphile obtained by combining the peptide 7.3(Leu-His) with myristoleyl aldehyde (7.3(Leu-His) M) was used to deliver EGFP pDNA in primary chicken embryo fibroblasts (CEF, obtained from 9-10 day-old chicken embryos), which are non-immortal cells difficult to transfect. The transfection efficiency of amphiphile 7.3(Leu-His) M was compared to that of Lipofectamine® 2000 (LF) and TransIT-LT1 Transfection Reagent (Mirus).

[5] = MTS cell viability of transfected cells, A549; format: cell-based; settings: human; A549 cells transfected with Cas9-RNP complexes; myristoleyl, palmitoleyl or petroselinyl aldehydes
Protocol: For Cas9-RNP delivery, the efficiency on GFP silencing was around 60-70% when complexing the protein with an amphiphile comprising 7.3(Leu-His) and myristoleyl, palmitoleyl or petroselinyl aldehydes. Cells transfected with the above-indicated complexes present a cell viability higher than 80%. Viability assays were performed employing the CellTiter 96© Aqueous Non-Radioactive Cell Proliferation Assay (MTS) and following the manufacturer's instructions. Briefly, 20 μL of the combined MTS/PMS solution were added into each well of the 96-well assay plate containing cells in culture medium (100 μL). The plate was incubated 4 hours at 37° C. and 5% CO2 in a humidified atmosphere. Then, absorbance (490 nm) was recorded in an INFINITE M1000 PRO (TECAN).

HeLa-EGFP cells = assay: Cas9 ribonucleoprotein delivery, flow cytometry of EGFP negative cells; format: cell-based
Protocol: FIG. 2 Percentage of editing (in bars, left axis) in HeLa-EGFP cells incubated with Cas9 ribonucleoprotein with an EGFP-targeting gRNA using the amphiphiles comprising 7.3(Leu-His) peptide with myristoleyl, palmitoleyl or petroselinyl aldehydes. After 3 days, EGFP negative cells (bars; left axis) and cell concentration (dots; right axis) were quantified by flow cytometry. ([Cas9]=50 nM, amphiphiles concentration in μM).
The inventors evaluated the intracellular delivery of Cas9 ribonucleoprotein with a gRNA targeting EGFP into HeLa-EGFP cells, using an amphiphilic molecule comprising peptide 7.3(Leu-His) combined with myristoleyl, palmitoleyl or petroselinyl aldehydes. After 3 days, EGFP negative cells were quantified by flow cytometry.

SMILES	IC50 [1] [µM]	effect of DMSO:aqueous volume ratio on bioluminescence (mice [2]; ratios 1:100, 1:200, 1:400)	biodistribution of bioluminescence (mice [2]; concentrated formulation, 5 μg mRNA/mouse)	conditions giving highest bioluminescence (FLuc expression) (mice [3]; 2.5 μM amphiphile, 1.25, 3 or 5 μg/mouse FLuc mRNA)	luciferase activity at the site of injection (mice [3]; 5 μg FLuc mRNA)	time of peak luciferase expression (mice [3]; 5 μg FLuc mRNA, all concentrations tested (2.5, 5, 10 μM)) [h]	transfection efficiency relative to Lipofectamine 2000 (LF) [4]	transfection efficiency relative to TransIT-LT1 Transfection Reagent (Mirus) [4]	viability [5] [%]	% of editing (EGFP negative cells) (HeLa-EGFP cells; Cas9 50 nM, flow cytometry after 3 days, amphiphile tails myristoleyl or palmitoleyl) [%]	concentration of cells relative to Lipofectamine (HeLa-EGFP cells; after 3 days, myristoleyl or palmitoleyl aldehydes, on average)
CCCC/C=C\CCCCCCCC=NNC(=O)CCCC(=O)NCCCC[C@H](NC(=O)[C@H](CCCCNC(=O)CCCC(=O)NN=CCCCCCCC/C=C\CCCC)NC(=O)[C@H](CCCNC(=N)N)NC(=O)[C@H](Cc1c[nH]cn1)NC(=O)[C@H](CCCCNC(=O)CCCC(=O)NN=CCCCCCCC/C=C\CCCC)NC(=O)[C@H](CCCNC(=N)N)NC(C)=O)C(=O)N[C@@H](Cc1c[nH]cn1)C(N)=O [7.3(Leu-His) M] (Ac-RK([Glutaryl-X1])HRK([Glutaryl-X1])K([Glutaryl-X1])H-NH2)	13 to 24	1:100 (DMSO:aqueous) ratios showed the highest bioluminescence values, with up to one order of magnitude luminescence enhancement as compared to 1:200 ratio	a preferred spleen biodistribution of the bioluminescence was observed	achieved with the complexes formed by 2.5 μM amphiphile and 5 μg/mouse of FLuc mRNA	High levels of luciferase activity	7	two times better	up to five times better	–	–	–
CC(=O)N[C@@H](CCCNC(=N)N)C(=O)N[C@@H](CCCCNC(=O)CCCC(=O)NN)C(=O)N[C@@H](Cc1c[nH]cn1)C(=O)N[C@@H](CCCNC(=N)N)C(=O)N[C@@H](CCCCNC(=O)CCCC(=O)NN)C(=O)N[C@@H](CCCCNC(=O)CCCC(=O)NN)C(=O)N[C@@H](Cc1c[nH]cn1)C(N)=O [7.3(L-H), Ac-RK*HRK*K*H-NH2] (Ac-RK([Glutaryl-NHNH2])HRK([Glutaryl-NHNH2])K([Glutaryl-NHNH2])H-NH2)	–	–	–	–	–	–	–	–	> 80	70	three times higher

— US20250304623A1, “PEPTIDES FOR INTRACELLULAR DELIVERY” (UNIVERSIDADE DE SANTIAGO DE COMPOSTELA, priority 2022, published 2025)
